Assays:
[1] = tested on: smoking cessation; conditions: cited from earlier work
[2] = tested on: nicotine self-administration in rats; assay: Intravenous nicotine self-administration, fixed-ratio schedule (Example 3); format: in vivo, Wistar-derived male rats; conditions: FR1-TO-20 s; varenicline 1 mg/kg subcutaneously; reduced from 15.4±1.0
Experimental: Wistar-derived male rats (250-300 g) were purchased from Harlan Laboratories (Livermore, Calif.), housed in groups of two, and maintained in a temperature-controlled environment on a 12 h:12 h light cycle. Before testing, animals were provided free access to food and water during a one-week habituation period, and were handled daily for several days to desensitize them to handling stress. Each rat included in the data analysis received all treatments in order to obtain reliable estimates of drug effects and decrease the impact of inter-animal variability.
Varenicline-HCl (Ontario Chemicals), at 1 mg/kg (expressed as free base), was used as a positive control and administered subcutaneously. Nicotine hydrogen tartrate (Sigma Aldrich) was dissolved in isotonic saline at 0.3 mg/mL (expressed as free base), adjusted to pH 7.0, and diluted to deliver 0.03 mg/kg/infusion. All test compounds were administered 30 minutes prior to nicotine self-administration sessions in a volume of 1 mL/kg.
Food training and nicotine self-administration took place in 8 standard COULBOURN® operant conditioning chambers. Each chamber was housed in a sound-attenuating chamber. Operant chambers were equipped with two levers mounted 2 cm above the floor and a cue light mounted 2 cm above the right lever (active lever) on the back wall of the chamber. […]

[3] = tested on: cocaine self-administration in rats; assay: Cocaine self-administration in rats, metyrapol (Example 5); format: in vivo, Adult male Wistar rats; conditions: metyrapol 25, 50, 100, 150 mg/kg ip 30 minutes before session; cocaine 0.125, 0.25 and 0.5 mg/kg/infusion
Experimental: (§1) We conducted the following experiment to explore the possibility that metyrapol would decrease cocaine self-administration in an animal model. Adult male Wistar rats were trained to respond under a 2-hour multiple, alternating schedule of food reinforcement and cocaine self-administration (fixed-ratio 4) during alternating 15-minute periods. Prior to testing, the rats were exposed to multiple saline substitution and food extinction probes. On test days, rats were pretreated 30 minutes prior to the start of the behavioral session with metyrapol (25, 50, 100, and 150 mg/kg, ip.) or vehicle. Subjects were initially trained and tested with 0.25 mg/kg/infusion of cocaine and, subsequently, with 0.125 and 0.5 mg/kg/infusion.

[4] = tested on: food-maintained responding in rats; assay: Food-maintained responding in rats, metyrapol (Example 5); format: in vivo, Adult male Wistar rats; conditions: metyrapol 25, 50, 100, 150 mg/kg ip
Experimental: as §1

[5] = tested on: cocaine self-administration in rats; assay: Ongoing cocaine self-administration in rats (earlier experiments); format: in vivo, rat; conditions: pretreatment with the single drug
Description: We then reduced the dose by one-half until we found a dose of each drug that no longer affected cocaine self-administration or any other observable behaviors (i.e., an ineffective dose). When we then combined the ineffective doses of the two drugs, cocaine self-administration was reduced. […] Thus, we concluded that combining drugs that affect the HPA axis through different mechanisms can produce an additive effect on cocaine reward. Furthermore, by combining these drugs at concentrations that have no effect when the drugs are administered alone, we can minimize the potential toxic side effects (e.g., excessive decreases in plasma cortisol with metyrapone and the abuse liability of benzodiazepines) that may be associated with these compounds. Accordingly, the compositions of the present invention may include combinations of therapeutic agents, one or both of which are present at a dosage level lower than that which would be required to achieve an effect had the agent been administered alone; the dosages may be additive.

[6] = tested on: ACTH; assay: Plasma ACTH radioimmunoassay (Example 1); format: in vivo, Male Wistar rats; conditions: rats before adrenalectomy; any of the doses
Description: (§2) Blood was collected via the implanted catheters at the end of the behavioral test sessions for the measurement of plasma CORT and […] (ACTH). The samples were kept on ice until centrifuged in a refrigerated centrifuge and the plasma collected and frozen until assayed. Plasma CORT and ACTH (ng/ml) were subsequently determined by radioimmunoassay.

[7] = tested on: plasma corticosterone; assay: Plasma corticosterone in rats (earlier experiments); format: in vivo, rat; conditions: pretreatment with metyrapone
[8] = tested on: cocaine self-administration in rats; assay: Cocaine self-administration before and after adrenalectomy, alternating schedule of cocaine and food reinforcement (Example 1); format: in vivo, Male Wistar rats; conditions: rats after bilateral adrenalectomy
Experimental: Male Wistar rats were housed in an AALAC-approved animal care facility and maintained at 85-90% of their free-feeding body weights. These rats were on a reversed 12-hour light, 12-hour dark cycle from the beginning of the experimental procedures.
A chronic indwelling jugular catheter (0.012 in i.d.×0.025 in o.d., silicone tubing) was implanted in each rat under pentobarbital anesthesia (50 mg/kg ip) with methyl atropine nitrate pretreatment (10 mg/kg ip). The animals were injected with sterile penicillin G procaine suspension (75,000 units, im) immediately before surgery and allowed 5-7 days to recover.
Animals were anesthetized with pentobarbital (50 mg/kg ip) with methyl atropine nitrate pretreatment (10 mg/kg ip). The adrenal glands were located through an incision and removed. The animals were injected with sterile penicillin G procaine suspension (75,000 units, im) and allowed to recover from surgery for 7 days. After ADX, the rats received drinking water containing 0.9% saline and 1.0% sucrose. Animals in the SHAM group received the same surgery except that the adrenal glands were not removed. They continued to receive tap water to drink.
Sound-attenuating operant conditioning chambers (Med-Associates, Inc.) were equipped with two response levers and a stimulus light located directly above each lever. A food pellet dispenser was located between the levers. […]

[9] = tested on: plasma CORT; assay: Plasma CORT radioimmunoassay (Example 1); format: in vivo, Male Wistar rats; conditions: rats before adrenalectomy; any of the doses
Description: as §2

## c1cnc2cc3c(cc2n1)[C@@H]1CNC[C@H]3C1 [varenicline]
[1]; literature reports
  efficacy for smoking cessation compared to either bupropion or nicotine replacement therapy: increased efficacy
[1]; smoking cessation, Nides et al. 2006
  quit rates after one year: 14%
[2]
  nicotine infusions during the 1-hour self-administration session: 7.7±1.2 infusions

## CC(C)(c1cccnc1)C(O)c1cccnc1 (stereo not shown) [metyrapol]
[3]
  cocaine self-administration: dose dependently decreased
[4]
  food-maintained responding: not significantly affected except at the highest doses

## CC(C)(C(=O)c1cccnc1)c1cccnc1 [metyrapone]
[5]
  ongoing cocaine self-administration: significant dose-related decreases
[6]
  ACTH (plasma): not changed
[7]
  plasma corticosterone: significant dose-related decreases
[8]
  blocking cocaine self-administration following adrenalectomy compared to pre-adrenalectomy values: as effective, and possibly even more effective
[9]
  Corticosterone (plasma): not changed
